What was measured:
HIV-1 [1] = test: Combination antiviral effect in HIV-1 infected MT4 cells; format: cell-based; conditions: with AZT, Indinavir, Nevirapin or ddI, FIGS. 2-5
Protocol: (§1) 40H—OPB was added to cultures of growing MT4 cells (a human CD4 cell line). HIV-1, stored in the culture medium at −75° C. was thawed and added in an amount which infected about 1 in 7 cells in each culture. The virus was absorbed to the cells for 2.3 hours at ambient temperature whereafter the cultures were centrifuged at 1200 rpm, the medium was removed, the cells were suspended in fresh growth medium and 40H—OPB was added to concentrations of 1, 10 and 100 μM (diluted in medium from a stock solution of 20 mM in DMSO). After 72 hours the HIV antigen concentration was determined using Abbott's test. By way of comparison phenbutazone (PB) was tested analogously.
Cell culture experiments were carried out as in Example 12, but in place of 40H—OPB (0-100 μM) was added:
i) 40H—OPB ([…]) with AZT (0-1 μM)
iii) 40H—OPB (0-100 μM) with Nevirapin (0-10 μM)

mice = test: Mouse toxicity; format: in vivo
Protocol: 20 g mice were given single doses of 40H—OPB (20 mM in DMSO) intraperitoneally. […] Furthermore, injection of 40H—OPB could be increased to 2000 mg/kg (corresponding to 20 mM in the extracellular fluid) before the mice started to die (6 out of 10 died at 2000 mg/kg).

HIV-1 [2] = test: Antiviral activity: HIV antigen concentration in HIV-1 infected MT4 cells; format: cell-based; conditions: MT4 cells (human CD4 cell line), 1, 10 and 100 μM, after 72 hours; FIG. 1
Protocol: as §1

`CCCCC1(O)C(=O)N(c2ccccc2)N(c2ccc(O)cc2)C1=O` (stereo not drawn) [40H—OPB, 4-(1-Butyl)-4-hydroxy-1-(4-hydroxyphenyl)-2-phenyl-3,5-pyrazolidinedione] was tested, and the “anti-HIV effect in combination with other anti-viral agents” value (HIV-1 [1]) was “enhanced anti-HIV effect”, the “lethal dose expressed as concentration in the extracellular fluid” value (mice; mice, corresponding to 2000 mg/kg) was 20 mM and the “dose reached before the mice started to die (lethal dose)” value (mice; mice, single dose intraperitoneally) was 2000 mg/kg. For the same molecule, the “factor by which concentrations that effectively inhibit HIV replication in cell cultures are lower than the lethal dose in mice” value (mice; mouse, in vivo, 2000 mg/kg) was “up to 200000 times”, the mice that died (mice; mouse, in vivo, ip, 2000 mg/kg) was 6 out of 10 and the “inhibition of virus production (HIV antigen concentration, Abbott's test)” value (HIV-1 [2]) was “inhibition of virus production by 40H—OPB at concentrations above the lowest tested”.

Reference: US20040152751A1, “Pyrazolidinol compounds” (priority 1999, published 2004)
